# In patent US20240400986A1, “MEMBRANE BOUND COMPOSITIONS AND METHODS RELATING TO SAME” (FLAGSHIP PIONEERING INNOVATIONS VII, LLC, priority 2021, published 2024):
# Structures can show the parent of a compound that is named as a salt. Where two headings read alike, the source gives them in different places.
# Columns and labels:
# [1] = test system: cardiomyocytic cell line derived from human ventricular heart tissue; experiment: Small molecule compound screen of gigasome production in cardiomyocytic monocultures;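 on all read-outs here: gigasomes shed into the culture medium were imaged by confocal microscopy and counted as round particles lacking nuclear signal, extrapolated to the whole well, fold change is relative to DMSO vehicle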; conditions: for fold induction at 0.01 µM / fold induction at 0.1 µM / fold induction at 1 µM / fold induction at 10 µM: Homo sapiens, Cardiomyocyte, read-out: Fold Change of Gigasomes Produced vs. DMSO
# [2] = test system: neuronal cell line derived from human neuroblastoma
# Description: For the screening, a total of 99 compounds (TargetMol) were divided in 5 groups. Each group included an untreated condition, a vehicular DMSO control, and a known high-gigasome producing condition to comparatively study gigasome production rates. As a cell death control group, 500 nM Staurosporine was added to induce apoptosis. Cultures were incubated for 24 hours under gigasome inducing conditions at concentrations ranging between 10 nM and 10,000 nM. Before the end of the treatment, live neuronal cultures were imaged. The Zeiss ZEN Blue software was used to distribute imaging fields of view (positions) to create an unbiased imaging sample of a well. 5 images were taken using a Zeiss LSM 900 confocal microscope. […] The BioApps ZEN software package was used to perform cell nucleus segmentation and counting. After 24 hours, gigasomes were harvested from the cell culture media by gently removing from the top of each 96-well ⅔ of the total volume without disturbing the cell layer (containing the settled gigasomes) and by adding to each well the same amount of PBS. […] Cells remaining in the 96-well plates were assessed for viability using CellTiter-Glo (Promega).
# [3] = test system: cardiomyocytic cell line derived from human ventricular heart tissue; experiment: Cell viability in cardiomyocyte compound screen (CellTiter-Glo); assay type: cell-based
# [4] = test system: neuronal cell line derived from human neuroblastoma; experiment: Small molecule compound screen of gigasome production in neuronal monocultures; conditions: for fold induction at 0.01 µM / fold induction at 0.1 µM / fold induction at 10 µM / fold induction at 1 µM: Homo sapiens, read-out: Fold Change of Gigasomes Produced vs. DMSO; for Number of Gigasomes Produced / Fold Change of Gigasomes Produced vs. DMSO: neuronal cells, 24 hours
# [5] = Table 22, dose 10 nM, cardiomyocytes, 24 hours
# [6] = Table 22, dose 100 nM, cardiomyocytes, 24 hours
# [7] = Table 22, dose 1000 nM, cardiomyocytes, 24 hours
# [8] = neuronal cells, dose 1000 nM, 24 hours
# [9] = neuronal cells, dose 10 nM, 24 hours
# [10] = neuronal cells, dose 100 nM, 24 hours
# [11] = neuronal cells, dose 10000 nM, 24 hours
# [12] = Table 23 (down-regulators), dose 10 nM, cardiomyocytes
# [13] = Table 23 (down-regulators), dose 100 nM, cardiomyocytes
# [14] = Table 23 (down-regulators), dose 1000 nM, cardiomyocytes
# [15] = Table 23 (down-regulators), dose 10000 nM, cardiomyocytes
# [16] = Table 22, dose 10000 nM, cardiomyocytes, 24 hours
smiles,measurement,setting,value
CC(=O)O[C@H]1C(=O)[C@@]2(C)[C@H]([C@H](OC(=O)c3ccccc3)[C@]3(O)C[C@H](OC(=O)[C@H](O)[C@@H](NC(=O)c4ccccc4)c4ccccc4)C(C)=C1C3(C)C)[C@]1(OC(C)=O)CO[C@@H]1C[C@@H]2O [Paclitaxel],fold induction at 0.01 µM,[1]; 24 h,1.5 to 1.75
same,Number of Gigasomes Produced,[1]; [5],150-175
same,Viability,"[2]; human, 24 h, 10 nM",>75%
same,Viability,"[3]; human, 24 h, 10 nM",>75%
same,fold induction at 0.01 µM,[4]; 24 h,1.5 to 1.75
same,Number of Gigasomes Produced,[4]; dose 10 nM,55-65
"CC1=C(O)C(=O)C=C2C1=CC=C1[C@@]2(C)CC[C@@]2(C)[C@@H]3C[C@](C)(C(=O)O)CC[C@]3(C)CC[C@]12C [Tripterin, reference compound]",Fold Change of Gigasomes Produced vs. DMSO,[1]; [6],0.75-1.0
same,Number of Gigasomes Produced,[1]; [6],<150
same,Fold Change of Gigasomes Produced vs. DMSO,[1]; [7],3.0-4.0
same,Number of Gigasomes Produced,[1]; [7],375-400
same,Viability,[2]; [8],>75%
same,Viability,[3]; [6],>75%
same,Viability,[3]; [7],50-75%
same,Fold Change of Gigasomes Produced vs. DMSO,[4]; dose 1000 nM,2.0-3.0
same,Number of Gigasomes Produced,[4]; dose 1000 nM,75-85
CC[C@@]1([C@@H]2O[C@@H]([C@H]3O[C@@](O)(CO)[C@H](C)C[C@@H]3C)C[C@@H]2C)CC[C@H]([C@]2(C)CC[C@]3(C[C@H](O)[C@@H](C)[C@@H]([C@@H](C)[C@@H](OC)[C@H](C)C(=O)O)O3)O2)O1 [Monensin sodium salt],fold induction at 0.01 µM,[1]; 24 h,1.25 to 1.5
same,fold induction at 0.1 µM,[1]; 24 h,1.25 to 1.5
same,fold induction at 1 µM,[1]; 24 h,2 to 3
same,Number of Gigasomes Produced,[1]; [5],150-175
same,Number of Gigasomes Produced,[1]; [6],150-175
same,Number of Gigasomes Produced,[1]; [7],250-275
same,Viability,[2]; [9],>75%
same,Viability,[2]; [10],>75%
same,Viability,[2]; [11],50-75%
same,Viability,[3]; [5],>75%
same,Viability,[3]; [6],>75%
same,Viability,[3]; [7],50-75%
same,fold induction at 0.01 µM,[4]; 24 h,0.75 to 1
same,fold induction at 0.1 µM,[4]; 24 h,1.75 to 2
same,fold induction at 10 µM,[4]; 24 h,1.5 to 1.75
same,Number of Gigasomes Produced,[4]; dose 10 nM,<35
same,Number of Gigasomes Produced,[4]; dose 100 nM,55-65
same,Number of Gigasomes Produced,[4]; dose 10000 nM,55-65
COc1ccc(C[C@H]2NC[C@H](O)[C@H]2OC(C)=O)cc1 [Anisomycin],Fold Change of Gigasomes Produced vs. DMSO,[1]; [6],1.25-1.5
same,Number of Gigasomes Produced,[1]; [6],150-175
same,Viability,[2]; [9],100%
same,Viability,[2]; [10],>75%
same,Viability,[2]; [8],50-75%
same,Viability,[3]; [6],50-75%
same,Fold Change of Gigasomes Produced vs. DMSO,[4]; dose 10 nM,1.0-1.25
same,Number of Gigasomes Produced,[4]; dose 10 nM,<35
same,Fold Change of Gigasomes Produced vs. DMSO,[4]; dose 100 nM,1.75-2.0
same,Number of Gigasomes Produced,[4]; dose 100 nM,65-75
same,Fold Change of Gigasomes Produced vs. DMSO,[4]; dose 1000 nM,1.75-2.0
same,Number of Gigasomes Produced,[4]; dose 1000 nM,65-75
"Nc1ccccc1NC(=O)c1ccc(CNC(=O)OCc2cccnc2)cc1 [Entinostat, reference compound]",fold induction at 0.1 µM,[1]; 24 h,1.75 to 2
same,Number of Gigasomes Produced,[1]; [6],300-325
same,Viability,"[2]; human, 24 h, 10000 nM",>75%
same,Viability,"[3]; human, 24 h, 100 nM",>75%
same,fold induction at 10 µM,[4]; 24 h,1.25 to 1.5
same,Number of Gigasomes Produced,[4]; dose 10000 nM,35-45
"Cn1cnc(N)c2ncnc1-2 [Compound 3-Methyladenine, 3-Methyladenine]",fold induction at 0.01 µM,[1]; 24 h,1.25 to 1.5
same,fold induction at 0.1 µM,[1]; 24 h,1.25 to 1.5
same,fold induction at 1 µM,[1]; 24 h,0.75 to 1
same,fold induction at 10 µM,[1]; 24 h,0.5 to 0.75
same,Number of Gigasomes Produced,[1]; [12],>150
same,Number of Gigasomes Produced,[1]; [13],>150
same,Number of Gigasomes Produced,[1]; [14],120-135
same,Number of Gigasomes Produced,[1]; [15],90-105
same,Viability,[2]; [9],100%
same,Viability,[2]; [10],100%
same,Viability,[2]; [8],100%
same,Viability,[3]; [12],>75%
same,Viability,[3]; [13],>75%
same,Viability,[3]; [14],>75%
same,Viability,[3]; [15],>75%
same,fold induction at 0.01 µM,[4]; 24 h,1.5 to 1.75
same,fold induction at 0.1 µM,[4]; 24 h,1.5 to 1.75
same,fold induction at 1 µM,[4]; 24 h,1.25 to 1.5
same,Number of Gigasomes Produced,[4]; dose 10 nM,45-55
same,Number of Gigasomes Produced,[4]; dose 100 nM,45-55
same,Number of Gigasomes Produced,[4]; dose 1000 nM,35-45
"COc1cc(O)c2c(c1)oc(=O)c1c3cc(O)c(O)cc3oc21 [Wedelolactone, reference compound]",fold induction at 0.01 µM,[1]; 24 h,0.5 to 0.75
same,fold induction at 0.1 µM,[1]; 24 h,0.5 to 0.75
same,fold induction at 1 µM,[1]; 24 h,0.5 to 0.75
same,fold induction at 10 µM,[1]; 24 h,< 0.25
same,Number of Gigasomes Produced,[1]; [12],75-90
same,Number of Gigasomes Produced,[1]; [13],75-90
same,Number of Gigasomes Produced,[1]; [14],50-75
same,Number of Gigasomes Produced,[1]; [15],<20
same,downregulation of gigasome production,"[1]; cardiomyocytes, doses 10-10,000 nM, 24 h",dose-dependent downregulation
same,Viability,"[3]; human, 24 h, 10 nM",100.0%
same,Viability,"[3]; human, 24 h, 100 nM",100.0%
same,Viability,"[3]; human, 24 h, 1000 nM",>75%
same,Viability,"[3]; human, 24 h, 10000 nM",>75%
same,"gigasome production, fold-change compared to DMSO","[4]; Oleuropein across doses, Wedelolactone 10,000 nM, 24 h",< 0.2
C=C(C)[C@@H]1CC[C@]2(CO)CC[C@]3(C)[C@H](CC[C@@H]4[C@@]5(C)CC[C@H](O)C(C)(C)[C@@H]5CC[C@]43C)[C@@H]12 [Betulin],fold induction at 0.1 µM,[1]; 24 h,1.5 to 1.75
same,Number of Gigasomes Produced,[1]; [6],175-200
same,Viability,[2]; [9],100%
same,Viability,[2]; [11],100%
same,Viability,[3]; [6],100%
same,fold induction at 0.01 µM,[4]; 24 h,1.25 to 1.5
same,fold induction at 10 µM,[4]; 24 h,1 to 1.25
same,Number of Gigasomes Produced,[4]; dose 10 nM,45-55
same,Number of Gigasomes Produced,[4]; dose 10000 nM,35-45
CN(C)CCCSC(=N)N [Dimaprit dihydrochloride],fold induction at 0.01 µM,[1]; 24 h,0.75 to 1
same,fold induction at 0.1 µM,[1]; 24 h,0.75 to 1
same,fold induction at 1 µM,[1]; 24 h,0.5 to 0.75
same,fold induction at 10 µM,[1]; 24 h,0.25 to 0.5
same,Number of Gigasomes Produced,[1]; [12],90-105
same,Number of Gigasomes Produced,[1]; [13],75-90
same,Number of Gigasomes Produced,[1]; [14],50-75
same,Number of Gigasomes Produced,[1]; [15],50-75
same,Viability,[3]; [12],100.0%
same,Viability,[3]; [13],100.0%
same,Viability,[3]; [14],>75%
same,Viability,[3]; [15],100.0%
O=c1ncn2nc(Sc3ccc(F)cc3F)ccc2c1-c1c(Cl)cccc1Cl [Neflamapimod],fold induction at 0.01 µM,[1]; 24 h,1 to 1.25
same,fold induction at 0.1 µM,[1]; 24 h,0.75 to 1
same,fold induction at 1 µM,[1]; 24 h,0.75 to 1
same,fold induction at 10 µM,[1]; 24 h,0.75 to 1
same,Number of Gigasomes Produced,[1]; [12],120-135
same,Number of Gigasomes Produced,[1]; [13],90-105
same,Number of Gigasomes Produced,[1]; [14],75-90
same,Number of Gigasomes Produced,[1]; [15],75-90
same,Viability,[2]; [9],100%
same,Viability,[2]; [10],>75%
same,Viability,[2]; [8],100%
same,Viability,[2]; [11],100%
same,Viability,"[3]; human, 24 h, 10 nM",100.0%
same,Viability,"[3]; human, 24 h, 100 nM",100.0%
same,Viability,"[3]; human, 24 h, 1000 nM",>75%
same,Viability,"[3]; human, 24 h, 10000 nM",100.0%
same,fold induction at 0.01 µM,[4]; 24 h,0.75 to 1
same,fold induction at 0.1 µM,[4]; 24 h,0.75 to 1
same,fold induction at 1 µM,[4]; 24 h,0.5 to 0.75
same,fold induction at 10 µM,[4]; 24 h,0.5 to 0.75
same,Number of Gigasomes Produced,[4]; dose 10 nM,30-35
same,Number of Gigasomes Produced,[4]; dose 100 nM,25-30
same,Number of Gigasomes Produced,[4]; dose 1000 nM,20-25
same,Number of Gigasomes Produced,[4]; dose 10000 nM,15-20
Cn1c(=O)n(-c2ccc(C(C)(C)C#N)cc2)c2c3cc(-c4cnc5ccccc5c4)ccc3ncc21 [Dactolisib],fold induction at 10 µM,[1]; 24 h,1.25 to 1.5
same,Number of Gigasomes Produced,[1]; [16],150-175
same,Viability,"[3]; human, 24 h, 10000 nM",>75%
C[C@@H]1COCCN1c1cc(=O)n2c(n1)N(Cc1cncc(Cl)c1)[C@H](C(F)(F)F)CC2 [SAR405],fold induction at 1 µM,[1]; 24 h,1 to 1.25
same,fold induction at 10 µM,[1]; 24 h,1 to 1.25
same,Number of Gigasomes Produced,[1]; [7],150-175
same,Number of Gigasomes Produced,[1]; [16],200-225
same,Viability,"[3]; human, 24 h, 1000 nM",100.0%
same,Viability,"[3]; human, 24 h, 10000 nM",>75%
O=C(O)c1cccnc1C(=O)O [Quinolinic acid],fold induction at 0.1 µM,[1]; 24 h,1 to 1.25
same,Number of Gigasomes Produced,[1]; [6],150-175
same,Viability,[3]; [6],100%
NC(=O)N1c2ccccc2C=Cc2ccccc21 [Carbamazepine],fold induction at 0.01 µM,[1]; 24 h,1 to 1.25
same,fold induction at 1 µM,[1]; 24 h,1.25 to 1.5
same,fold induction at 10 µM,[1]; 24 h,1.25 to 1.5
same,Number of Gigasomes Produced,[1]; [5],200-225
same,Number of Gigasomes Produced,[1]; [7],250-275
same,Number of Gigasomes Produced,[1]; [16],250-275
same,Viability,"[3]; human, 24 h, 10 nM",>75%
same,Viability,"[3]; human, 24 h, 1000 nM",>75%
same,Viability,"[3]; human, 24 h, 10000 nM",>75%
